Results from the NIST ThermoML archive (doi:10.1016/j.fluid.2013.11.023).
Numbers after ± are expanded uncertainties.

Details: Crystal; DTA

## Brc1sc(Br)c(Br)c1Br [perbromothiophene]
  Normal melting temperature: 118.60 ± 4 °C
